According to patent US9204640B2, “2-acyloxy-pyrrolin-4-ones” (BAYER INTELLECTUAL PROPERTY GMBH, priority 2011, dated 2015):

Assays:
Format in all cases: in vivo
Echinocloa crus-galli = assay: Herbicidal post-emergence action, ECHCG
Method: (§1) 2. Herbicidal Post-Emergence Action
(§2) • Seeds of monocotyledonous and dicotyledonous weed and crop plants are placed in sandy loam in wood-fiber pots, covered with soil and cultivated in a greenhouse under good growth conditions. 2 to 3 weeks after sowing, the test plants are treated at the one-leaf stage. The test compounds, formulated as wettable powders (WP), are then, with a water application rate of 600 l/ha (converted), with 0.2% of wetting agent added, sprayed at various dosages onto the green parts of the plants. After the test plants have been kept in the greenhouse under optimum growth conditions for about 3 weeks, the activity of the preparations is rated visually in comparison to untreated controls (herbicidal activity in percent: 100% activity=the plants have died, 0% activity=like control plants). • In addition to the compounds mentioned above, the following compounds show an activity of 90-100% against Alopecurus myosuroides, Avena fatua, Digitaria sanguinalis, Echinocloa crus-galli, Lolium multiflorum, Setaria viridis and Sorghum halapense when applied by the post-emergence method at 320 g/ha: I-a-2, I-a-4, I-a-5, I-a-7, I-a-9, I-a-10, I-a-11, I-a-12, I-a-13, I-a-15. • In addition to the compounds mentioned above, the following compounds show an activity of 90-100% against Alopecurus myosuroides, Avena fatua, Echinocloa crus-galli, Lolium multiflorum and Setaria viridis when applied by the post-emergence method at 80 g/ha: I-a-1, I-b-2.
(§3) • Seeds of monocotyledonous and dicotyledonous weed plants and crop plants are placed in wood-fiber pots in sandy loam and covered with soil. The test compounds, formulated in the form of wettable powders (WP) or emulsion concentrates (EC), are then, as an aqueous suspension with a water application rate of 600-800 l/ha (converted), with 0.1-0.2% of wetting agent added, applied at various dosages to the surface of the covering soil. • After the treatment, the pots are placed in a greenhouse and kept under good growth conditions for the test plants. […] Herbicidal Post-Emergence Action (Post) • Seeds of monocotyledonous and dicotyledonous weed and crop plants are placed in sandy loam in wood-fiber pots, covered with soil and cultivated in a greenhouse under good growth conditions. 2-3 weeks (stages 10-13 according to the BBCH scale) after sowing, the test plants are treated at a height of 5-10 cm. The test compounds, formulated as wettable powders (WP) or emulsion concentrates (EC), are then, with a water application rate of 600-800 l/ha (converted), with 0.1-0.2% of wetting agent added, sprayed at various dosages onto the green parts of the plants.
(§4) AVEFA: Avena fatua LOLMU: Lolium multiflorum SETVI: Setaria viridis CHEAL: Chenopodium album VIOTR: Viola tricolor VERPE: Veronica persica ORYSA: Oryza sativa TRZAS: Triticum aestivum ZEAMX: Zea mays ALOMY: Alopecurus myosuroides DIGSA: Digitaria sanguinalis ECHCG: Echinocloa crus-galli SORHA: Sorghum halepense AVESA: Avena sativa AMARE: Amaranthus retroflexus SINAL: Sinapis alba STEME: Stellaria media

Myzus persicae = assay: Myzus test (MYZUPE spray treatment); details: for effect in % (aphids killed): application rate 500 g/ha, after 5 days, Chinese cabbage leaf discs
Method: Myzus Test (MYZUPE Spray Treatment) [table] To produce a suitable preparation of active compound, 1 part by weight of active compound is mixed with the stated amount of solvent and emulsifier, and the concentrate is diluted with emulsifier-containing water to the desired concentration. Discs of Chinese cabbage (Brassica pekinensis) infected by all stages of the green peach aphid (Myzus persicae) are sprayed with an active compound preparation of the desired concentration. After 5 days, the effect in % is determined 100% means that all of the aphids have been killed; 0% means that none of the aphids have been killed. Myzus Test (MYZUPE Spray Treatment) To produce a suitable preparation of active compound, 1 part by weight of active compound is mixed with the stated amount of solvent and emulsifier, and the concentrate is diluted with emulsifier-containing water to the desired concentration. Discs of Chinese cabbage (Brassica pekinensis) infected by all stages of the green peach aphid (Myzus persicae) are sprayed with an active compound preparation of the desired concentration. After the desired period of time, the activity in % is determined. 100% means that all of the aphids have been killed; 0% means that none of the aphids have been killed.

Zea mays = assay: Herbicidal post-emergence action, ZEAMX
Text: as §3, §4

Lolium multiflorum = assay: Herbicidal post-emergence action, LOLMU
Method: as §1, §2, §3, §4

Tetranychus urticae = assay: Tetranychus test (TETRUR spray treatment; OP-resistant in Example 10); details: for effect in % (spider mites killed): after 5 days, bean leaf discs
Method: Tetranychus Test (TETRUR Spray Treatment)
To produce a suitable preparation of active compound, 1 part by weight of active compound is mixed with the stated amount of solvent and emulsifier, and the concentrate is diluted with emulsifier-containing water to the desired concentration. Discs of bean leaves (Phaseolus vulgaris) which are infested by all stages of the greenhouse red spider mite (Tetranychus urticae) are sprayed with an active compound preparation of the desired concentration.
After 5 days, the effect in % is determined. 100% means that all of the spider mites have been killed; 0% means that none of the spider mites have been killed.
Tetranychus Test, OP-Resistant (TETRUR Spray Treatment)
To produce a suitable preparation of active compound, 1 part by weight of active compound is mixed with the stated amount of solvent and emulsifier, and the concentrate is diluted with emulsifier-containing water to the desired concentration.
Discs of bean leaves (Phaseolus vulgaris) which are infested by all stages of the greenhouse red spider mite (Tetranychus urticae) are sprayed with an active compound preparation of the desired concentration.
After the desired period of time, the activity in % is determined. 100% means that all of the spider mites have been killed; 0% means that none of the spider mites have been killed.

Digitaria sanguinalis = assay: Herbicidal post-emergence action, DIGSA; details: 80 g/ha
Method: as §1, §2, §3, §4

Setaria viridis = assay: Herbicidal post-emergence action, SETVI; details: 80 g/ha
Method: as §1, §2, §3, §4

Triticum aestivum = assay: Herbicidal post-emergence action, TRZAS
Text: as §3, §4

Sorghum halepense = assay: Herbicidal post-emergence action, SORHA; details: for % Activity SORHA: 80 g/ha
Method: as §1, §2, §3, §4

Oryza sativa = assay: Herbicidal post-emergence action, ORYSA
Text: as §3, §4

Boophilus microplus = Boophilus microplus test (BOOPMI injection); details: 20 μg/animal, after 7 days
Method: Boophilus Microplus Test (BOOPMI Injection) [table] To prepare an appropriate active compound formulation, 10 mg of active compound are mixed with 0.5 ml of solvent and the concentrate is diluted with solvent to the desired concentration. The solution of active compound is injected into the abdomen (Boophilus microplus), and the animals are transferred into dishes and kept in a climatized room. The activity is assessed by deposition of fertile eggs. After 7 days, the effect in % is determined. 100% means that none of the ticks has laid any fertile eggs.

Avena fatua = assay: Herbicidal post-emergence action, AVEFA
Method: as §1, §2, §3, §4

Phaedon cochleariae = assay: Phaedon test (PHAECO spray treatment); details: for effect in % (beetle larvae killed): application rate 500 g/ha, after 7 days, Chinese cabbage leaf discs; for inhibition at 100 g/ha: Phaedon cochleariae, 168 h, 7dat
Method: Phaedon Test ([…] Spray Treatment) [table] To produce a suitable preparation of active compound, 1 part by weight of active compound is mixed with the stated amount of solvent and emulsifier, and the concentrate is diluted with emulsifier-containing water to the desired concentration. Discs of Chinese cabbage (Brassica pekinensis) are sprayed with an active compound preparation of the desired concentration and, after drying, populated with larvae of the mustard beetle (Phaedon cochleariae). After 7 days, the effect in % is determined 100% means that all beetle larvae have been killed; 0% means that none of the beetle larvae have been killed. Phaedon Test ([…] Spray Treatment) To produce a suitable preparation of active compound, 1 part by weight of active compound is mixed with the stated amount of solvent and emulsifier, and the concentrate is diluted with emulsifier-containing water to the desired concentration. Discs of Chinese cabbage (Brassica pekinensis) are sprayed with an active compound preparation of the desired concentration and, after drying, populated with larvae of the mustard beetle (Phaedon cochleariae). After the desired period of time, the activity in % is determined. 100% means that all beetle larvae have been killed; 0% means that none of the beetle larvae have been killed.

Alopecurus myosuroides = assay: Herbicidal post-emergence action, ALOMY
Method: as §1, §2, §3, §4

Q: How did the “% Activity ECHCG” value (Echinocloa crus-galli; 20 g/ha) turn out when `CCc1cc(Br)cc(C)c1C1=C(OC(=O)C(C)(C)C)NC2(CCC(OC)CC2)C1=O` (centres unmarked) [I-a-5] was run?
A: 80%

Q: How did the “effect in % (aphids killed)” value (Myzus persicae) turn out when `CCOC(=O)OC1=C(c2c(CC)cc(C)cc2C2CC2)C(=O)C(C)(C)N1` [I-b-5] was run?
A: 100%

Q: With `CCc1cc(Br)cc(Cl)c1C1=C(OC(=O)C(C)(C)C)NC2(CCCCC2)C1=O` [I-a-14] as the compound, how does the “% Activity ZEAMX” value (Zea mays; 80 g/ha) read?
A: 100%

Q: And the “% Activity LOLMU” value (Lolium multiflorum; 80 g/ha)?
A: 100%

Q: And the “effect in % (spider mites killed)” value (Tetranychus urticae; application rate 500 g/ha)?
A: 90%

Q: What about the “% Activity DIGSA” value (Digitaria sanguinalis) of the same compound?
A: 100%

Q: What about the “% Activity SETVI” value (Setaria viridis) of the same compound?
A: 100%

Q: And the “% Activity TRZAS” value (Triticum aestivum; 80 g/ha)?
A: 90%

Q: What about the “% Activity SORHA” value (Sorghum halepense) of the same compound?
A: 100%

Q: And the “% Activity SORHA” value (Sorghum halepense; second SORHA column)?
A: 90%

Q: What about the “% Activity ORYSA” value (Oryza sativa; 80 g/ha) of the same compound?
A: 80%

Q: And the “efficacy in % (deposition of fertile eggs)” value (Boophilus microplus)?
A: 80%

Q: And the “% Activity ECHCG” value (Echinocloa crus-galli; 80 g/ha)?
A: 100%

Q: What about the “% Activity AVEFA” value (Avena fatua; 80 g/ha) of the same compound?
A: 100%

Q: And the “effect in % (beetle larvae killed)” value (Phaedon cochleariae)?
A: 100%

Q: What about the “effect in % (aphids killed)” value (Myzus persicae) of the same compound?
A: 90%

Q: What about the “% Activity ALOMY” value (Alopecurus myosuroides; 80 g/ha) of the same compound?
A: 80%

Q: For `CCCc1cc(Br)cc(Br)c1C1=C(OC(=O)C(C)(C)C)NC(C)(C)C1=O` [I-a-11], which “effect in % (beetle larvae killed)” value (Phaedon cochleariae) is on record?
A: 83%

Q: How did the inhibition at 20 g/ha (Echinocloa crus-galli; Echinochloa crus-galli, post-emergence, 20 g/ha) turn out when `CCc1cc(Br)cc(C)c1C1=C(OC(=O)C(C)(C)C)C2(CCC(OC)CC2)NC1=O` (centres unmarked) [I-b-2 known from WO 05/006125] was run?
A: 50%

Q: What does the source list for `CCc1cc(Cl)cc(OC)c1C1=C(OC(=O)C(C)C)C2(CCCCC2)NC1=O`?
A: % Activity ZEAMX (Zea mays; concentration 80 g/ha 20 g/ha): 20%; % Activity LOLMU (Lolium multiflorum; concentration 80 g/ha 20 g/ha): 50%; % Activity TRZAS (Triticum aestivum; concentration 80 g/ha 20 g/ha, first TRZAS column): 0%; % Activity TRZAS (Triticum aestivum; concentration 80 g/ha 20 g/ha, second TRZAS column): 0%; % Activity ORYSA (Oryza sativa; concentration 80 g/ha 20 g/ha): 0%; % Activity AVEFA (Avena fatua; concentration 80 g/ha 20 g/ha): 20%; % Activity ALOMY (Alopecurus myosuroides; concentration 80 g/ha 20 g/ha): 40%

Q: What does the source list for `CCOC(=O)OC1=C(c2cc(C)ccc2C)C(=O)[C@@]2(CCC[C@H](COC)C2)N1` [I-b-1]?
A: effect in % (spider mites killed) (Tetranychus urticae; application rate 100 g/ha): 100%; efficacy in % (deposition of fertile eggs) (Boophilus microplus): 95%; inhibition at 100 g/ha (Phaedon cochleariae): 100%; effect in % (beetle larvae killed) (Phaedon cochleariae): 100%; inhibition at 4 g/ha (Myzus persicae; Myzus persicae, 120 h, 5dat): 90%; effect in % (aphids killed) (Myzus persicae): 100%

Q: With `CCC(C)(C)C(=O)OC1=C(c2cc(C)ccc2C)C(=O)N[C@]12CC[C@@H](OC)CC2` as the compound, how does the inhibition at 500 g/ha (Tetranychus urticae; Tetranychus urticae, 120 h, 500 g/ha, 5dat, OP-resistant) read?
A: 0%

Q: What about the inhibition at 20 g/ha (Myzus persicae; Myzus persicae, 120 h, 20 g/ha, 5dat) of the same compound?
A: 0%

Q: Which “effect in % (beetle larvae killed)” value (Phaedon cochleariae) does the source give for `CCc1cc(C)cc(Br)c1C1=C(OC(=O)C(C)C)NC(C)(C)C1=O` [Example I-a-1] here?
A: 83%

Q: What about the “effect in % (aphids killed)” value (Myzus persicae) of the same compound?
A: 90%

Q: For `CCOC(=O)OC1=C(c2cc(C)c(Cl)cc2C)C(=O)C2(CCC(COC)CC2)N1` (centres unmarked) [I-b-4], which “effect in % (aphids killed)” value (Myzus persicae) is on record?
A: 90%

Q: `CCOC(=O)OC1=C(c2cc(C)ccc2C)C(=O)N[C@@]12CCC[C@@H](COC)C2` [I-1-c-2 known from WO 07/048545] was tested. Which inhibition at 100 g/ha (Phaedon cochleariae) did it give?
A: 50%

Q: And the inhibition at 4 g/ha (Myzus persicae; Myzus persicae, 120 h, 5dat)?
A: 0%

Q: What does the source list for `CCc1cc(Br)cc(Cl)c1C1=C(OC(=O)C(C)(C)C)C2(CCCCC2)NC1=O` [I-b-41 known from WO 04/065366]?
A: inhibition at 80 g/ha (Zea mays; Zea mays, post-emergence, 80 g/ha): 0%; inhibition at 80 g/ha (Lolium multiflorum; Lolium multiflorum, post-emergence, 80 g/ha): 0%; inhibition at 80 g/ha (Digitaria sanguinalis; Digitaria sanguinalis, post-emergence): 0%; inhibition at 80 g/ha (Setaria viridis; Setaria viridis, post-emergence): 0%; inhibition at 80 g/ha (Triticum aestivum; Triticum aestivum, post-emergence, 80 g/ha): 0%; inhibition at 80 g/ha (Sorghum halepense; Sorghum halepense, post-emergence): 0%; inhibition at 80 g/ha (Oryza sativa; Oryza sativa, post-emergence, 80 g/ha): 0%; inhibition at 80 g/ha (Echinocloa crus-galli; Echinochloa crus-galli, post-emergence, 80 g/ha): 80%; inhibition at 80 g/ha (Avena fatua; Avena fatua, post-emergence, 80 g/ha): 0%; inhibition at 80 g/ha (Alopecurus myosuroides; Alopecurus myosuroides, post-emergence, 80 g/ha): 0%

Q: How did the “% Activity TETRUR” value (Tetranychus urticae; 500 g/ha, 5dat, OP-resistant) turn out when `CCC(C)(C)C(=O)OC1=C(c2cc(C)ccc2C)C(=O)C2(CCC(OC)CC2)N1` (centres unmarked) [I-a-16] was run?
A: 90%

Q: What about the “effect in % (spider mites killed)” value (Tetranychus urticae; application rate 500 g/ha) of the same compound?
A: 90%

Q: And the “% Activity MYZUPE” value (Myzus persicae; 20 g/ha, 5dat)?
A: 100%

Q: And the “effect in % (aphids killed)” value (Myzus persicae)?
A: 100%
